# Key:
# [1] = system: dendritic cell (DC); assay: DC maturation in vivo, CD86 and CD40 expression on spleen DC by flow cytometry; design: species or system mice; conditions: median fluorescent intensity, spleen DC 18 hours after 1 μg intravenous injection
# Procedure: (§1) This example illustrates the in vivo effect of threitolceramide-containing liposomes on dendritic cell (DC) maturation, as measured by CD86 and CD40 expression, and iNKT cell activation, as measured by IL-4 and IFNγ release.
# (§2) WT (n=3) and CD1d^−/− (n=1) mice were administered 1 μg of liposomes (EPC:DDAB:TC(10); EPC:EPG:TC(2); EPC:EPG:TC(5); EPC:EPG:TC(10) and EPC:CHOL:TC(10)) or control liposome (EPC:EPG), soluble threitolceramide or soluble α-GalCer by intravenous injection.
# 18 hours post-injection, the spleens of the mice were harvested and the phenotype of DC maturation was examined by flow cytometry as determined by the median fluorescent intensity (MFI) of CD86 and CD40 expression.
# [2] = system: iNKT cell; assay: Activation of NKT cells in vivo, serum IL-4 and IFN-γ by ELISA; design: species or system mice; conditions: 1 μg intravenous injection; for IL-4 (serum): 2 hours; for INFγ (serum): 18 hours
# Procedure: as §1, §2
# Serums were obtained by tail venipuncture 2 and 18 hours post-injection to detect IL-4 and IFN-γ levels by ELISA.
# [3] = system: murine invariant natural killer cells (iNKT); assay: Activation of iNKT cells in splenocyte culture, IFNγ ELISA; format: cell-based, mice; conditions: splenocytes cultured 72 hours with material (titrating amounts 10 μg/ml, 1 μg/ml, 100 ng/ml; concentration of the tabulated values not stated), supernatant ELISA
# Procedure: This Example illustrates ability of the threitolceramide-containing liposomes to activate murine invariant natural killer cells (iNKT) and human cells, as measured by IFNγ release.
# Splenocytes were prepared from either wild type (WT) or CD1d^−/− (NKT cell deficient) mice and cultured in the presence of titrating amounts (10 μg/ml, 1 μg/ml, 100 ng/ml) of non-glycosidic ceramide containing liposomes (EPC:DDAB:TC(10); EPC:EPG:TC(2); EPC:EPG:TC(5); EPC:EPG:TC(10) and EPC:CHOL:TC(10)), control liposome (EPC:EPG), soluble threitolceramide or soluble α-GalCer for 72 hours. Soluble threitolceramide and soluble α-GalCer were prepared by dissolution in a chloroform/methanol/water solution (10:10:3) at 10 mg/mL. The resulting solution was diluted to a final volume of about 200 μg/mL using vehicle solution comprised of NaCl (about 150 mM) and polyoxyethylene (20) sorbitan monolaurate (i.e., Tween 20, 0.5%). Supernatants were removed from cultures and the amount of IFNγ produced by the cells was quantified by ELISA. Briefly, ELISA plates were coated with 1D1K antibody (Mabtech) and left overnight at 4° C. The plates were washed with 0.05% Tween 20 in PBS (v/v). To eliminate any non-specific antigen binding, the plates were coated (i.e. blocked) with 200 μL of 10% FCS in PBS (v/v) and incubated for 2 h at 37° C. […]
SMILES,CD40 (DC maturation) Median [1],CD86 (DC maturation) Median [1],IL-4 (serum) [2] [ng/mL],INFγ (serum) [2] [ng/mL],IFNγ [3] [ng/mL]
"CCCCCCCCCCCCCCCCCCCCCCCCCC(=O)N[C@@H](COC[C@H](O)[C@@H](O)CO)[C@H](O)[C@H](O)CCCCCCCCCCCCCC [Soluble TC, threitolceramide]",28.9,60.1,0.12,0.99,3.77
"CCCCCCCCCCCCCCCCCCCCCCCCCC(=O)N[C@@H](CO[C@H]1O[C@H](CO)[C@H](O)[C@H](O)[C@H]1O)[C@H](O)[C@H](O)CCCCCCCCCCCCCC [Soluble α-GalCer, α-Galactosylceramide]",39.1,91.6,0.83,8.47,9.21

# Reference: patent US10039715B2, “Liposomal formulation of nonglycosidic ceramides and uses thereof” (LUDWIG INSTITUTE FOR CANCER RESEARCH LTD., priority 2010, dated 2018)
